In article PMC10815238, “New N-Terminal Fatty-Acid-Modified Melittin Analogs with Potent Biological Activity” (International Journal of Molecular Sciences, 2024):

Assays:
[1] = CD measurements of secondary structure; assay type: physicochemical; conditions: 0.5 mg/mL, 25 °C
Procedure: The CD spectra of the MDLs were measured at 25 °C on a Chirascan spectrometer (Applied Photophysics, Surrey, UK) using a quartz cell with a 1.0 mm path length, recording from 180 to 260 nm. A scanning speed of 50 nm/min was used and the bandwidth was 1 nm. The optical path and slit width were 0.1 cm and 0.1 nm, respectively. […], 50% TFE (Macklin, Shanghai, China) was used to mimic the hydrophobic condition of the microbial membrane, and 25 mM SDS (Macklin, Shanghai, China) micelles were used to mimic the negatively charged prokaryotic membrane. The observed ellipticity was converted to molar ellipticity using the following equation: θ=θobs(MRW/10×c×l) where [θ] is the molar ellipticity (deg·cm^2·dmol^−1), θobs is the observed ellipticity corrected for the buffer at a given wavelength (mdeg), MRW is the mean residual molecular weight (molecular weight/number of amino acids), c is the peptide concentration (mg/mL), and l is the path length (cm). Assuming lipopeptides were a two-state model, the percentage in the α-helix structure of the MDLs was calculated using the following equation: α-helical content=−([θ]222 +2000)/30,000×100%

S. aureus ATCC 43300 = experiment: Salt sensitivity (MIC in the presence of physiological salts); assay type: cell-based, Staphylococcus aureus; design: key: MIC in μg/mL (two-fold dilutions 256 to 0.25 μg/mL); conditions: for MIC, MgCl2: 1 mM MgCl2, unit not given in Table 4; for MIC, FeCl3: 4 mM FeCl3, unit not given in Table 4; for MIC, KCl: 4.5 mM KCl; for MIC, KCl / MIC, NaCl: unit not given in Table 4; for MIC, NaCl: 150 mM NaCl; for MIC, Control: no added salt, unit not given in Table 4 (Table 3 MIC in μg/mL)
Procedure: (§1) MIC was determined using the broth microdilution method with minor modification. In brief, bacteria (S. aureus ATCC 43300, E. faecalis ATCC 29212, E. coli ATCC 25922, P. aeruginosa ATCC 27853, L. monocytogenes CVCC 3764, B. cereus CVCC 4101, S. Castellani CGMCC 1.1869, and the multidrug-resistant E. coli strain) were cultured in nutrient broth (NB) medium (Macklin, Shanghai, China) to the logarithmic phase and diluted to 1 × 10^6 colony forming units (CFUs)/mL. The MDLs were dissolved to a final concentration of 256~0.25 μg/mL in NB medium using two-fold dilutions. A total of 50 μL of different concentrations of the MDL solutions and an equal volume of bacterial suspension were added to a 96-well plate, which was then incubated at 37 °C for 18 h. The minimum concentrations of the MDLs with no visible growth of bacteria were defined as the corresponding MICs. Media containing bacteria without the MDLs were set as the negative control. Each measurement was performed independently three times.
(§2) This was carried out in triplicate and tested at least twice.

E. coli ATCC 25922 = experiment: as above; assay type: cell-based, Escherichia coli; design: key to MIC, NaCl / MIC, KCl / MIC, MgCl2: MIC in μg/mL (two-fold dilutions 256 to 0.25 μg/mL); conditions: for MIC, MgCl2: 1 mM MgCl2, unit not given in Table 4; for MIC, FeCl3: 4 mM FeCl3, unit not given in Table 4; for MIC, KCl: 4.5 mM KCl; for MIC, KCl / MIC, NaCl: unit not given in Table 4; for MIC, NaCl: 150 mM NaCl; for MIC, Control: no added salt, unit not given in Table 4 (Table 3 MIC in μg/mL)
Procedure: as §1, §2

[2] = Hydrophobicity assay (RP-HPLC retention time); assay type: physicochemical; conditions: chromatographic, ChromCore120 C18 column 4.6 x 250 mm 5 μm; 0.1 mg/mL in deionized water; A 0.1% TFA in water, B 0.1% TFA in acetonitrile; 5% B to 90% B over 30 min; 1 mL/min; UV 220 nm; three independent experiments
Excerpt: The hydrophobicity, amphipathicity, and positive charge distribution of lipopeptides are crucial for their antimicrobial activities. Among these, hydrophobicity has been deemed essential for promoting a hydrophobic interaction with the lipid bilayer, leading to membrane disruption, cytoplasm leakage, and eventual cell death. Lipopeptides with different peptide sequences and chain lengths usually show different hydrophobicities, generating different RTs in the RP-HPLC analysis. The more hydrophobic the lipopeptide, the longer the RT on the column.
Each MDL was dissolved and diluted to 0.1 mg/mL in deionized water (obtained in-house) and then subjected to RP-HPLC on a ChromCore120 C18 column (4.6 × 250 mm, 5 μm) (NanoChrom, Suzhou, China) using 0.1% trifluoroacetic acid (TFA) (Macklin, Shanghai, China) in water as solvent A and 0.1% TFA in acetonitrile (Merck, Darmstadt, Germany) as solvent B. The elution gradient was as follows: 5% B to 90% B over 30 min, 90% B maintained for 2 min, and 90% B to 5% B over 1 min. The flow rate was 1 mL/min and measurements were taken at 220 nm. The retention time was recorded for each MDL.

Compound	α-Helix, % ([1]; 25 mM SDS)	β-Fold, % ([1]; 25 mM SDS)	α-Helix, % ([1]; 50% TFE)	β-Fold, % ([1]; 50% TFE)	α-Helix, % ([1]; PBS Buffer)	β-Fold, % ([1]; PBS Buffer)	MIC, MgCl2 (S. aureus ATCC 43300)	MIC, FeCl3 (S. aureus ATCC 43300)	MIC, KCl (S. aureus ATCC 43300)	MIC, NaCl (S. aureus ATCC 43300)	MIC, Control (S. aureus ATCC 43300)	MIC, MgCl2 (E. coli ATCC 25922)	MIC, FeCl3 (E. coli ATCC 25922)	MIC, KCl (E. coli ATCC 25922)	MIC, NaCl (E. coli ATCC 25922)	RT, Min (RP-HPLC retention time, measure of hydrophobicity) [2]	MIC, Control (E. coli ATCC 25922)
CCCCCCCCCCCC(=O)NCC(=O)N[C@H](C(=O)NCC(=O)N[C@@H](C)C(=O)N[C@H](C(=O)N[C@@H](CC(C)C)C(=O)N[C@@H](CCCCN)C(=O)N[C@H](C(=O)N[C@@H](CC(C)C)C(=O)N[C@H](C(=O)N[C@H](C(=O)NCC(=O)N[C@@H](CC(C)C)C(=O)N1CCC[C@H]1C(=O)N[C@@H](C)C(=O)N[C@@H](CC(C)C)C(=O)N[C@H](C(=O)N[C@@H](CO)C(=O)N[C@@H](Cc1c[nH]c2ccccc12)C(=O)N[C@H](C(=O)N[C@@H](CCCCN)C(=O)N[C@@H](CCCNC(=N)N)C(=O)N[C@@H](CCCCN)C(=O)N[C@@H](CCCNC(=N)N)C(=O)N[C@@H](CCC(N)=O)C(=O)N[C@@H](CCC(N)=O)C(N)=O)[C@@H](C)CC)[C@@H](C)CC)[C@@H](C)O)[C@@H](C)O)C(C)C)C(C)C)[C@@H](C)CC [Peptide C12-Mel]	15.9%	29.5%	19%	21.5%	11.5%	31.3%	64	64	32	16	8	128	128	32	32	23.344 ± 0.004 min	
CCCCCCCCCCCCCC(=O)NCC(=O)N[C@H](C(=O)NCC(=O)N[C@@H](C)C(=O)N[C@H](C(=O)N[C@@H](CC(C)C)C(=O)N[C@@H](CCCCN)C(=O)N[C@H](C(=O)N[C@@H](CC(C)C)C(=O)N[C@H](C(=O)N[C@H](C(=O)NCC(=O)N[C@@H](CC(C)C)C(=O)N1CCC[C@H]1C(=O)N[C@@H](C)C(=O)N[C@@H](CC(C)C)C(=O)N[C@H](C(=O)N[C@@H](CO)C(=O)N[C@@H](Cc1c[nH]c2ccccc12)C(=O)N[C@H](C(=O)N[C@@H](CCCCN)C(=O)N[C@@H](CCCNC(=N)N)C(=O)N[C@@H](CCCCN)C(=O)N[C@@H](CCCNC(=N)N)C(=O)N[C@@H](CCC(N)=O)C(=O)N[C@@H](CCC(N)=O)C(N)=O)[C@@H](C)CC)[C@@H](C)CC)[C@@H](C)O)[C@@H](C)O)C(C)C)C(C)C)[C@@H](C)CC [Peptide C14-Mel]	15.5%	31.7%	16%	25.2%	12%	31%	256	256	64	64	32	256	256	64	128	25.621 ± 0.002 min	32
CCCCCCCCCCCCCCCC(=O)NCC(=O)N[C@H](C(=O)NCC(=O)N[C@@H](C)C(=O)N[C@H](C(=O)N[C@@H](CC(C)C)C(=O)N[C@@H](CCCCN)C(=O)N[C@H](C(=O)N[C@@H](CC(C)C)C(=O)N[C@H](C(=O)N[C@H](C(=O)NCC(=O)N[C@@H](CC(C)C)C(=O)N1CCC[C@H]1C(=O)N[C@@H](C)C(=O)N[C@@H](CC(C)C)C(=O)N[C@H](C(=O)N[C@@H](CO)C(=O)N[C@@H](Cc1c[nH]c2ccccc12)C(=O)N[C@H](C(=O)N[C@@H](CCCCN)C(=O)N[C@@H](CCCNC(=N)N)C(=O)N[C@@H](CCCCN)C(=O)N[C@@H](CCCNC(=N)N)C(=O)N[C@@H](CCC(N)=O)C(=O)N[C@@H](CCC(N)=O)C(N)=O)[C@@H](C)CC)[C@@H](C)CC)[C@@H](C)O)[C@@H](C)O)C(C)C)C(C)C)[C@@H](C)CC [Peptide C16-Mel]	15.2%	33%	14.3%	26.8%	12.5%	30.4%	>256	>256	256	128	64	>256	>256	256	>256	26.892 ± 0.005 min	128
